Like-named read-outs stand apart in the source and are kept apart here.
Tests used:
[1] = Determination of solubility; conditions: Solvent: Water; 25±2° C.
Description: According to the invention, the solubility of the compound of the invention can be tested by using a standard solubility test method.
While vigorously stirring for 30 seconds every 5 minutes, the dissolution of the powder was observed within 30 minutes.

[2] = Determination of hygroscopicity (high humidity test); assay type: physicochemical
Description: The hygroscopicity of the compound of the invention can be tested by a standard hygroscopicity test method. For example, the compound is stored in a sealed vessel at room temperature at a relative humidity of 92.5%, 80% or 75%, and the change in moisture content of the compound is tested by sampling at regular intervals.
At the 5th and 10th days, the products were sampled and determined in aspect of important items relating to stability investigation. […] If the weight gain of a product due to moisture absorption was more than 5%, the product was further experimented according to the same method under a relative humidity of 75%±5%. If the weight gain of a product due to moisture absorption was less than 5%, and other items thereof under investigation met the relevant requirements, no more experiment was needed. The humidity-constant condition could be achieved by placing a saturated saline solution at the lower part of a sealed vessel, e.g., a desiccator, and a NaCl saturated solution (15.5-60° C., a relative humidity of 75%±1%) or a KNO3 saturated solution (25° C., a relative humidity of 92.5%) may be selected according to the requirement of different relative humidity.

[3] = system: influenza virus strain FM1 (H1N1); test: Anti-influenza activity in infected mice (survival); assay type: in vivo, mice (BALB/C); conditions: 5 times, 14th day after infection
Description: A virus drip is prepared typically by including 500 pfu (plaque forming unit) of mice-compliance influenza virus strain in 50 μl phosphate buffer (containing 0.42% bovine serum albumin), and then dropped into nasal cavity of mice to infect them (BALB/C, female, aged 5-6 weeks, weighted 20 g). The compound of the invention is suspended in physiological saline to obtain different doses, typically from 2.5 mg/kg to 40 mg/kg, and is administered to the mice at different time before and after the viral infection, typically administered by intraperitoneal injection for 5 times, i.e., 1 hour, and 2, 3, 4, 5 days after the viral infection. The assay is performed by using 8 or 12, typically 10 mice. The result is expressed by the ratio of the number of survival mice the 14th day after the viral infection to the number of the mice in assay.
A solution was prepared by including 500 pfu (plaque forming unit) of mice-compliance influenza virus strain FM1 (H1N1) in 50 μl phosphate buffer (containing 0.42% bovine serum albumin), and then dropped into nasal cavity of mice (BALB/C, female, aged 5-6 weeks, weighted 20 g) to infect them with an infective dose of 23.7LD50. The compound of the invention was suspended in physiological saline, and was administered in doses of 2.5 mg/kg, 5 mg/kg, 10 mg/kg, 20 mg/kg to the mice by intraperitoneal injection for 5 times, i.e., 1 hour, and 2, 3, 4, 5 days after the viral infection, respectively. The assay was performed by 10 mice. The result was expressed by the ratio of the number of survival mice the 14th day after the viral infection to the number of the mice in assay.

[4] = Stability of RWJ270201 in aqueous solution; assay type: physicochemical; conditions: as shown by study
[5] = system: NA of 7 influenza A virus stains; conditions: 7 influenza A virus strains; cited from earlier work
[6] = system: NA of 4 influenza B virus strains; conditions: cited from earlier work
[7] = system: influenza virus strain A/HongKong/156/97 (H5N1); conditions: cited from earlier work
[8] = system: influenza virus strain B/Hong Kong/5/72; conditions: 1 mg/kg/day; cited from earlier work
[9] = system: influenza virus strain A/Bayern/07/95 (H1N1); conditions: 10 mg/kg/day; cited from earlier work
[10] = system: influenza virus strain A/NWS/33 (H1N1); conditions: 10 mg/kg/day; cited from earlier work
[11] = rats, 1000 mg/kg/day for 5 days; cited from earlier work
[12] = Relative humidity 92.5%, 25° C.

## (1S,2S,3S,4R)-3-[(1S)-1-acetylamino-2-ethyl-butyl]-4-guanidino-2-hydroxy-cyclopentyl-1-carboxylic acid dihydrate
[1]
  Solubility: 50 mg/mL
[2]; Relative humidity 75%
  Hygroscopicity at the 5th day: 2.21%
  Hygroscopicity at the 10th day: 2.54%
[2]; [12]
  Hygroscopicity at the 5th day: 2.54%
  Hygroscopicity at the 10th day: 2.98%

## CCC(CC)[C@H](NC(C)=O)[C@H]1[C@H](O)[C@@H](C(=O)O)C[C@H]1NC(=N)N [Anhydrous, (1S,2S,3S,4R)-3-[(1S)-1-acetylamino-2-ethyl-butyl]-4-guanidino-2-hydroxy-cyclopentyl-1-carboxylic acid, reference compound]
[2]; Relative humidity 75%
  Hygroscopicity at the 5th day: 7.23%
  Hygroscopicity at the 10th day: 12.88%
[2]; [12]
  Hygroscopicity at the 5th day: 8.38%
  Hygroscopicity at the 10th day: 13.53%
[2]; as shown by study
  hygroscopicity: easily hygroscopic
[2]; ten-day observation test, sealed vessel, room temperature, high relative humidity
  weight gain: about 13.53%
[3]; 2.5 mg/kg intraperitoneal
  Survival number: 5/10
  Survival rate: 50%
[3]; 5.0 mg/kg intraperitoneal
  Survival number: 7/10
  Survival rate: 70%
[3]; 10 mg/kg intraperitoneal
  Survival number: 7/10
  Survival rate: 70%
[3]; 20 mg/kg intraperitoneal
  Survival number: 9/10
  Survival rate: 90%
[4]
  stability in aqueous solution: unstable in aqueous solution
[5]
  IC50: 0.1 to 1.4 nM
[6]
  IC50: 0.6 to 11 nM
[7]; group of 10 mg/kg/day
  Survival rate: up to 100%
[7]; infected mice
  death rate: markedly reduce the death rate
  diffusion of virus to brain tissue: prevent the diffusion of virus to brain tissue
  virus titer in lung tissue: markedly reduce virus titer in lung tissue
[7]; mouse, in vivo, 0.1 mg/kg/day
  Survival rate: up to 70%
[8]
  arterial oxygen saturation: prevent the reduction in arterial oxygen saturation
  death rate: reduce the death rate
  efficacy compared with oseltamivir: more effective than oseltamivir
  lung consolidation: inhibit lung consolidation
[9]
  effect on infection: effectively antagonize the infection
[10]
  death rate: reduce the death rate
[11]
  toxic side effect: no toxic side effect was found

From patent US9518008B2, “(1S,2S,3S,4R)-3-[(1S)-1-acetylamino-2-ethyl-butyl]-4-uanidino-2-hydroxyl-cyclopentyl-1-carboxylic acid hydrates pharmaceutical uses thereof” (Institute of Pharmacology and Toxicology Academy of …, priority 2007, dated 2016)
